Results reported in patent US20240247080A1, “GLP1/GIP/NPY2 RECEPTOR TRIPLE AGONISTS” (Boehringer Ingelheim International GmbH, priority 2022, published 2024).
pEC50: −log10 of the molar value. Where two headings read alike, the source gives them in different places. Non-standard residues stand in square brackets, D forms with d. Residues, ends and D or L forms follow the SMILES beside them. Groups on a side chain read outwards from the residue. ξ: configuration not given here. *: point of attachment. C18 diacid = O=C(O)CCCCCCCCCCCCCCCCC(=O)*; NMeY = CN[C@@H](Cc1ccc(O)cc1)C(=O)O; Palmitoyl = CCCCCCCCCCCCCCCC(=O)*; αMeF = C[C@](N)(Cc1ccccc1)C(=O)O; ξIva = CCC(C)(N)C(=O)O; Aib = CC(C)(N)C(=O)O

How the values were obtained:
[1] = Solubility in 0.1 M phosphate buffer at pH 7; type: physicochemical
Protocol: Peptides (as TFA-salts) were weighed out in a filter unit (Mini-UniPrep Syringieless Filter 0.45 prn. Whatman PVDF), and 0.1 M phosphate buffer at pH 7 was added to achieve 10 mg/mL final peptide concentration. The peptides were dissolved by shaking the filter units horizontally at 600 rpm for 2 hours at room temperature. Samples were then filtered to remove any insoluble particles. Controls were prepared by weighing out the corresponding peptide solid material and dissolving it in an appropriate vehicle (e.g. ACN:H2O) to a final concentration of 1 mg/mL. Both, the control and sample were analyzed by reversed phase chromatography. The area under the peak of the sample was compared to the control and the solubility was calculated based on that ratio. The pH was measured and recorded for each sample.

[2] = Mouse PK after intravenous application; type: in vivo; settings: mean residence time, intravenous 30-60 nmol/kg, male NMRI mice
How it was run: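 Male NMRI mice (30–40 g) received 30-60 nmol/kg peptide by tail-vein injection, dissolved in 50 mM phosphate buffer (pH 7.4)/3.5% mannitol. Saphenous blood was sampled up to 56 hours post-dose and EDTA plasma analysed by LC-MS. PK parameters came from non-compartmental analysis.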

hGIPR = molecular target: T1, hGIPR (Homo sapiens, UniProt P48546); assay: hGIPR CreLuc reporter gene assay in 0.5% and 100% plasma; type: cell-based; settings: CreLuc reporter gene assay
T1 construct: expressed in transfected cells; host or cells: CHO cells carrying a CRE-luciferase reporter gene
T1 sequence (P48546 22-466): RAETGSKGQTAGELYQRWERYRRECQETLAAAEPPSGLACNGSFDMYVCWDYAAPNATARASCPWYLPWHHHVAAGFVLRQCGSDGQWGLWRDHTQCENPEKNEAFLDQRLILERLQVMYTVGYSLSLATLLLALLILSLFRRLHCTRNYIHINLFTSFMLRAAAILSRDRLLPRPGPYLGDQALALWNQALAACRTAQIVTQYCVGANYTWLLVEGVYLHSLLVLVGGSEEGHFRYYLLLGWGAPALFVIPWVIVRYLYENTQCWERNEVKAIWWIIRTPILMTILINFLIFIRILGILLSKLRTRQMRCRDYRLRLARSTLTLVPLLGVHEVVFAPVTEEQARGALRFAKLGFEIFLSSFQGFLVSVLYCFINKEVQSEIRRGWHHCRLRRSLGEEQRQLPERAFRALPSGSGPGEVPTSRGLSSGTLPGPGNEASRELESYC
How it was run: (§1)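 HEK-293 cells co-expressing GLP-1 or NPY2 receptor and CHO cells expressing GIP receptor, each carrying a CRE-driven luciferase reporter, were stimulated with peptides for 4 hours at 37 °C. Luminescence was read after Bright-Glo addition. EC50 came from 8-point, four-decade curves fitted by variable-slope non-linear regression.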

hNPY2R = molecular target: T2, hNPY2R (Homo sapiens, UniProt P49146); assay: hNPY2R CreLuc reporter gene assay in 0.5% and 100% plasma; type: cell-based; settings: CreLuc reporter gene assay
T2 construct: expressed in transfected cells; host or cells: HEK-293 cells carrying a CRE-luciferase reporter gene
T2 sequence (P49146 1-381): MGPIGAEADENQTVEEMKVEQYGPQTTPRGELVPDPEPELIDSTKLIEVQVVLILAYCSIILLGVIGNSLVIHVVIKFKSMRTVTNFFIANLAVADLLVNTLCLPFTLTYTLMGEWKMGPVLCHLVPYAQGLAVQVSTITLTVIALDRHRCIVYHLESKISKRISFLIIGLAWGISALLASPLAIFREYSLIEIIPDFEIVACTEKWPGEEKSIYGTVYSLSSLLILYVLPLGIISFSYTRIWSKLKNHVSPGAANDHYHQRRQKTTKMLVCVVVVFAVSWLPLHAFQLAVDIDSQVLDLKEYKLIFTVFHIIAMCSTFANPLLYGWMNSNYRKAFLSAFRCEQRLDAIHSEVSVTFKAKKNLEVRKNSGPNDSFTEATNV
How it was run: as §1

hGLP1R = molecular target: T3, hGLP1R (Homo sapiens, UniProt P43220); assay: hGLP1R CreLuc reporter gene assay in 0.5% and 100% plasma; type: cell-based; settings: CreLuc reporter gene assay, 0.5% human plasma; read-out: hGLP1R 0.5% hP
T3 construct: expressed in transfected cells; host or cells: HEK-293 cells carrying a CRE-luciferase reporter gene
T3 sequence (P43220 24-463): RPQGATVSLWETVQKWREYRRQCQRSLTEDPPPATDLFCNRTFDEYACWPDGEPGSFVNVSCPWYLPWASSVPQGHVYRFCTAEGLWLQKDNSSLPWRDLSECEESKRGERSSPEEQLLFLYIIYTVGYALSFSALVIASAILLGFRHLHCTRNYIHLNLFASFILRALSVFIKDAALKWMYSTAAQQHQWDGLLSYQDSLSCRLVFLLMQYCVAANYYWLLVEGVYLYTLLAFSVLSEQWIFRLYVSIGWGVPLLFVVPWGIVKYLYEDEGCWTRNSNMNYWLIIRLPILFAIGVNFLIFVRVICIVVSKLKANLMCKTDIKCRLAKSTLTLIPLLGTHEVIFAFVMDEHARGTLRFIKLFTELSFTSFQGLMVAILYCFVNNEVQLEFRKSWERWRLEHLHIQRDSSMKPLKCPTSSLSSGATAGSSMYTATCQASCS
How it was run: as §1

[3] = Effect on acute food intake in normal NMRI mice; type: in vivo; settings: 30 nmol/kg subcutaneously once, normalized to vehicle group, male NMRI mice
How it was run: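 Male NMRI mice (n=8, ≥6 weeks old) had food withdrawn 8 h before dark phase and received a single subcutaneous dose of test peptide 1 h before lights-off; the vehicle was 50 mM phosphate pH 7.4/3.5% mannitol. Food intake was recorded hourly over 24 h by a microchip-based automated monitoring system.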

## CC[C@H](C)[C@H](NC(=O)[C@H](CO)NC(=O)[C@H](CCCCNC(=O)CNC(=O)CNC(=O)CNC(=O)CNC(=O)CCCCCCCCCCCCCCCCC(=O)O)NC(=O)[C@H](CC(=O)O)NC(=O)[C@H](CO)NC(=O)[C@@H](NC(=O)[C@](C)(Cc1ccccc1)NC(=O)[C@@H](NC(=O)CNC(=O)[C@H](CCC(=O)O)NC(=O)C(C)(C)NC(=O)[C@H](Cc1ccc(O)cc1)NC)[C@@H](C)O)[C@@H](C)O)C(=O)NC(C)(C)C(=O)N[C@@H](CC(C)C)C(=O)N[C@@H](CCC(=O)O)C(=O)N[C@@H](CCCCN)C(=O)N[C@@H](CCC(N)=O)C(=O)N[C@@H](CCCNC(=N)N)C(=O)N[C@@H](CCC(N)=O)C(=O)NC(C)(CC)C(=O)N[C@@H](CCC(=O)O)C(=O)N[C@@H](Cc1ccccc1)C(=O)N[C@H](C(=O)N[C@@H](CCCNC(=N)N)C(=O)N[C@@H](Cc1c[nH]cn1)C(=O)N[C@@H](CC(C)C)C(=O)N[C@@H](CC(C)C)C(=O)N[C@@H](CC(N)=O)C(=O)N[C@@H](CCCCN)C(=O)NC(C)(C)C(=O)N[C@H](C(=O)N[C@@H](CCCNC(=N)N)C(=O)N[C@@H](CCC(N)=O)C(=O)N[C@@H](CCCNC(=N)N)C(=O)N[C@@H](Cc1ccc(O)cc1)C(N)=O)[C@@H](C)O)C(C)C (stereo partly drawn) [Ref. 2, NMeY-Aib-E-G-T-aMeF-T-S-D-K(1,3)-S-I-Aib-L-E-K-Q-R-Q-Iva-E-F-V-R-H-L-L-N-K-Aib-T-R-Q-R-Y-NH2.C18DA-G-G-G-G(1,2), reference compound] (H-[NMeY][Aib]EGT[αMeF]TSDK([Gly-Gly-Gly-Gly-C18 diacid])SI[Aib]LEKQRQ[ξIva]EFVRHLLNK[Aib]TRQRY-NH2)
[1]; phosphate buffer
  solubility: < 1000 µg/mL
[2]; plasma
  MRT: 4.3 h

## CC[C@H](C)[C@H](NC(=O)[C@H](CC(C)C)NC(=O)[C@H](Cc1c[nH]c2ccccc12)NC(=O)[C@H](CCC(N)=O)NC(=O)[C@@H](NC(=O)[C@H](Cc1ccccc1)NC(=O)[C@H](C)NC(=O)C(C)(C)NC(=O)[C@H](CCC(N)=O)NC(=O)[C@H](C)NC(=O)[C@H](CCC(N)=O)NC(=O)[C@H](CCCCN)NC(=O)[C@H](CCC(=O)O)NC(=O)[C@H](CC(C)C)NC(=O)C(C)(C)NC(=O)[C@@H](NC(=O)[C@H](CO)NC(=O)[C@H](Cc1ccc(O)cc1)NC(=O)[C@H](CC(=O)O)NC(=O)[C@H](CO)NC(=O)[C@@H](NC(=O)[C@H](Cc1ccccc1)NC(=O)[C@@H](NC(=O)CNC(=O)[C@H](CCC(=O)O)NC(=O)C(C)(C)NC(=O)[C@@H](N)Cc1ccc(O)cc1)[C@@H](C)O)[C@@H](C)O)[C@@H](C)CC)C(C)C)C(=O)N[C@@H](CCCCNC(=O)[C@@H](N)CCCCNC(=O)CC[C@H](NC(=O)CC[C@H](NC(=O)CC[C@H](NC(=O)CC[C@H](NC(=O)CC[C@H](NC(=O)CC[C@H](NC(=O)CCCCCCCCCCCCCCCCCCC(=O)O)C(=O)O)C(=O)O)C(=O)O)C(=O)O)C(=O)O)C(=O)O)C(=O)NCC(=O)NCC(=O)N1CCC[C@H]1C(=O)N[C@@H](CO)C(=O)N[C@@H](CCC(=O)O)C(=O)NCC(=O)N[C@@H](C)C(=O)N[C@@H](CO)C(=O)N[C@@H](CC(C)C)C(=O)N[C@@H](CCCNC(=N)N)C(=O)N[C@@H](Cc1c[nH]cn1)C(=O)N[C@@H](Cc1ccc(O)cc1)C(=O)N[C@@H](Cc1ccc(O)cc1)C(=O)N[C@@H](CC(N)=O)C(=O)N[C@@H](Cc1c[nH]c2ccccc12)C(=O)N[C@@H](CC(C)C)C(=O)N[C@H](C(=O)N[C@@H](CCCNC(=N)N)C(=O)N[C@@H](CCC(N)=O)C(=O)N[C@@H](CCCNC(=N)N)C(=O)N[C@@H](Cc1ccc(O)cc1)C(N)=O)[C@@H](C)O [Compound 220, Y-Aib-E-G-T-F-T-S-D-Y-S-I-Aib-L-E-K-Q-A-Q-Aib-A-F-V-Q-W-L-I-K(1,3)-GGPSEGASLRHYYNWLTRQRY-NH2.C20DA-gGlu-gGlu-gGlu-gGlu-gGlu-gGlu-eLys(1,2)]
hGIPR; 0.5% human plasma, read-out: hGIPR 0.5% hP
  pEC50: 9.54
hGIPR; 100% human plasma, read-out: hGIPR 100% hP
  pEC50: 8.74
[2]; plasma
  MRT: 12.1 h
hNPY2R; 0.5% human plasma, read-out: hNPY2R 0.5% hP
  pEC50: 7.99
hNPY2R; 100% human plasma, read-out: hNPY2R 100% hP
  pEC50: 7.37
hGLP1R
  pEC50: 9.77
[3]
  Acute Food Intake 24 h 30 nmol/kg [% CTL]: 45 % CTL

## CCCCCCCCCCCCCCCC(=O)NCC(=O)NCC(=O)NCC(=O)NCC(=O)NCCCC[C@H](NC(=O)[C@H](CC(=O)O)NC(=O)[C@H](CO)NC(=O)[C@@H](NC(=O)[C@](C)(Cc1ccccc1)NC(=O)[C@@H](NC(=O)CNC(=O)[C@H](CCC(=O)O)NC(=O)C(C)(C)NC(=O)[C@H](Cc1ccc(O)cc1)NC)[C@@H](C)O)[C@@H](C)O)C(=O)N[C@@H](CO)C(=O)N[C@H](C(=O)NC(C)(C)C(=O)N[C@@H](CC(C)C)C(=O)N[C@@H](CCC(=O)O)C(=O)N[C@@H](CCCCN)C(=O)N[C@@H](CCC(N)=O)C(=O)N[C@@H](CCCNC(=N)N)C(=O)N[C@@H](CCC(N)=O)C(=O)NC(C)(CC)C(=O)N[C@@H](CCC(=O)O)C(=O)N[C@@H](Cc1ccccc1)C(=O)N[C@H](C(=O)N[C@@H](CCCNC(=N)N)C(=O)N[C@@H](Cc1c[nH]cn1)C(=O)N[C@@H](CC(C)C)C(=O)N[C@@H](CC(C)C)C(=O)N[C@@H](CC(N)=O)C(=O)N[C@@H](CCCCN)C(=O)NC(C)(C)C(=O)N[C@H](C(=O)N[C@@H](CCCNC(=N)N)C(=O)N[C@@H](CCC(N)=O)C(=O)N[C@@H](CCCNC(=N)N)C(=O)N[C@@H](Cc1ccc(O)cc1)C(N)=O)[C@@H](C)O)C(C)C)[C@@H](C)CC (stereo partly drawn) [Ref. 1, NMeY-Aib-E-G-T-aMeF-T-S-D-K(1,3)-S-I-Aib-L-E-K-Q-R-Q-Iva-E-F-V-R-H-L-L-N-K-Aib-T-R-Q-R-Y-NH2.C16A-G-G-G-G(1,2), reference compound] (H-[NMeY][Aib]EGT[αMeF]TSDK([Gly-Gly-Gly-Gly-Palmitoyl])SI[Aib]LEKQRQ[ξIva]EFVRHLLNK[Aib]TRQRY-NH2)
[1]
  solubility: < 1000 µg/mL
[2]; in vivo
  MRT: < 1 h
